The source of these data is paper PMC9607427, “Novel 7-Chloro-(4-thioalkylquinoline) Derivatives: Synthesis and Antiproliferative Activity through Inducing Apoptosis and DNA/RNA Damage” (Pharmaceuticals, 2022).

One series deals with U2OS (osteosarcoma). Description: Cytotoxic MTS assay, U2OS. It counts as cell-based, human. The protocol:
(§1) In vitro cytotoxic activity of final compounds 5–82 was evaluated after 3 days of incubation against eight cell lines derived from human solid tumors including lung (A549 cells) and colon (HCT116 and HCT116p53−/−) carcinomas, as well as leukemia cell lines (CCRF-CEM, CEM-DNR, K562, and K562-TAX) and osteosarcoma (U2OS cells). For comparison, non-malignant BJ and MRC-5 fibroblasts, and BJLD and MCR-5LD fibroblasts doxorubicin-resistant cell lines were used. Concentrations inhibiting the cell growth by 50% (IC50) were determined using a quantitative metabolic staining with 3-(4,5-dimethylthiazol-2yl)-5-(3-carboxymethoxyphenyl)-2-(4-sulfophenyl)-2H-tetrazolium (MTS) and are summarized in (Table 3).
(§2) Cytotoxic activity was determined by MTS assay following 72 h of incubation. IC50 is the lowest concentration that kills 50% of cells. The standard deviation in cytotoxicity assays is typically up to 20% of the average value. […] The tested cell lines: A549 (lung adenocarcinoma), BJ (noncancerous human fibroblasts from foreskin), BJLD (human lung fibroblast doxorubicin-resistant), CCRF-CEM (childhood T cell acute lymphoblastic leukemia), a daunorubicin-resistant subline of CCRF-CEM cells (CEM-DNR bulk), HCT116 (colorectal carcinoma), HCT116p53−/− (HCT116 with deleted p53 gene), K562 (chronic myeloid leukemia), K562-TAX (chronic myeloid leukemia paclitaxel-resistant subline), MRC-5 (noncancerous human lung fibroblasts), MRC-5LD (noncancerous human lung fibroblasts doxorubicin-resistant), and U2OS (osteosarcoma).
(§3) All cell lines were purchased from the American Tissue Culture Collection (ATCC). The A549 cell line is lung adenocarcinoma. MRC-5 and BJ cell lines were used as a non-tumor control and represent human fibroblasts. (MRC-5 LD and BJLD) are doxorubicin-resistant human lung fibroblast cell lines. The CCRF-CEM line is derived from T lymphoblastic leukemia, evincing high chemosensitivity, whereas K562 represent cells from an […] patient sample with bcr-abl translocation. The daunorubicin-resistant subline of CCRF-CEM cells (CEM-DNR bulk) and paclitaxel-resistant subline K562-TAX were selected in our laboratory by the cultivation of maternal cell lines in increasing concentrations of daunorubicin or paclitaxel, respectively. The CEM-DNR bulk cells overexpress MRP-1 and P-glycoprotein protein, whereas K562-TAX cells overexpress P-glycoprotein only. Both proteins belong to the family of ABC transporters and are involved in the primary and/or acquired multidrug-resistance phenomenon. The U2OS cell line is derived from osteosarcoma, HCT116 is a colorectal tumor cell line and its p53 gene knock-down counterpart (HCT116p53−/−, Horizon Discovery Ltd., Cambridge, UK) is a model of human cancers with p53 mutation frequently associated with poor prognosis. The cells were maintained in nunc/corning 80 cm^2 plastic tissue culture flasks and cultured in a cell culture medium according to ATCC or Horizon recommendations (DMEM/RPMI 1640 with 5 g/L glucose, 2 mM glutamine, 100 U/mL penicillin, […], 10% fetal calf serum, and NaHCO3).
(§4) The activity of compounds was determined using a standard 3-(4,5-dimethylthiazol-2-yl)-5-(3-carboxymethoxyphenyl)-2-(4-sulfophenyl)-2H-tetrazolium (MTS) and it was performed at the Institute of Molecular and Translational Medicine by a robotic platform (High-ResBiosolutions). Cell suspensions were prepared and diluted according to the particular cell type and the expected target cell density (25,000–35,000 cells/mL based on cell growth characteristics). Cells were added by automatic pipettor (30 µL) into 384-well microtiter plates. All tested compounds were dissolved in 100% DMSO and four-fold dilutions of the intended test concentration were added in 0.15 µL aliquots at time zero to the microtiter plate wells by the echo acoustic non-contact liquid handler Echo550 (Labcyte). […]
(In general: Tetrazolium assays rely on reduction of a dye to a coloured formazan, in cell work by metabolically active cells.)

Series [1] has as its system HCT116p53−/− (HCT116 with deleted p53 gene). Description: Cytotoxic MTS assay, HCT116p53−/−. It counts as cell-based, human. The procedure:
as §1, §2, §3, §4

Series [2] deals with A549 (lung adenocarcinoma). Briefly: Cytotoxic MTS assay, A549. It counts as cell-based, human. The procedure: as §1, §2, §3, §4
For series [3], the system named is K562-TAX (chronic myeloid leukemia paclitaxel-resistant subline). Description: Cytotoxic MTS assay, K562-TAX. It counts as cell-based, human. The procedure:
as §1, §2, §3, §4

Series [4] concerns MRC-5 (noncancerous human lung fibroblasts). Description: Cytotoxic MTS assay, MRC-5. It counts as cell-based. The procedure: as §1, §2, §3, §4
The test system of series [5] is HCT116 (colorectal carcinoma). Description: Cytotoxic MTS assay, HCT116. It counts as cell-based, human. The procedure: as §1, §2, §3, §4
In series [6] the test system is BJLD (human lung fibroblast doxorubicin-resistant). Briefly: Cytotoxic MTS assay, BJLD. It counts as cell-based. The procedure: as §1, §2, §3, §4
Series [7] relates to MRC-5LD (noncancerous human lung fibroblasts doxorubicin-resistant). Description: Cytotoxic MTS assay, MRC-5LD. It counts as cell-based. The protocol: as §1, §2, §3, §4
Series [8] has as its system BJ (noncancerous human fibroblasts from foreskin). Description: Cytotoxic MTS assay, BJ. It counts as cell-based. The protocol:
as §1, §2, §3, §4

Series [9] concerns K562 (chronic myeloid leukemia). Description: Cytotoxic MTS assay, K562. It counts as cell-based, human. The protocol:
as §1, §2, §3, §4

The subject of series [10] is CCRF-CEM (childhood T cell acute lymphoblastic leukemia). Briefly: Cytotoxic MTS assay, CCRF-CEM. It counts as cell-based, human. The procedure:
as §1, §2, §3, §4

In series [11] the test system is CEM-DNR bulk (daunorubicin-resistant subline of CCRF-CEM cells). Briefly: Cytotoxic MTS assay, CEM-DNR. It counts as cell-based, human. The protocol:
as §1, §2, §3, §4

As for `COc1cccc(C(=O)OCCS(=O)(=O)c2cc[n+]([O-])c3cc(Cl)ccc23)c1OC` [Compound 64, 2-[(N-Oxide 7-chloroquinolin-4-yl)sulfonyl]ethyl-2,3-dimethoxybenzoate], the IC50 with U2OS (osteosarcoma) was determined as 7.43 µM; in series [1] it was 7.68 µM; in series [2], 28.4 µM; in series [3], 5.65 µM; in series [4], 6.08 µM; in series [5], 8.18 µM. Moreover, the IC50 came out at 8.95 µM in series [6]; 3.28 µM in [7]; 9.19 µM in series [8]; 5.51 µM in [9]; 0.71 µM in series [10]; 8.99 µM in [11].
Consider `COc1ccc(OC)c(C(=O)OCCCS(=O)(=O)c2cc[n+]([O-])c3cc(Cl)ccc23)c1` [Compound 75, 3-[(N-Oxide 7-chloroquinolin-4-yl)sulfonyl]propyl-2,5-dimethoxybenzoate], for which the IC50 in the series on U2OS (osteosarcoma) was found to be 6.4 µM; in [1], 6.86 µM; in [2], 7.28 µM; in [3], 9.56 µM; in [4], 21.5 µM; in series [5] it was 5.37 µM. For the same compound, the IC50 in series [6] was determined as 17.8 µM; in series [7], 18.9 µM; in series [8], 26.6 µM; in series [9], 7.14 µM; in [10], 1.45 µM; in [11] it was 7.22 µM.
As to `COc1cc(OC)c(C(=O)OCCCS(=O)(=O)c2cc[n+]([O-])c3cc(Cl)ccc23)cc1OC` [Compound 76, 3-[(N-Oxide 7-chloroquinolin-4-yl)sulfonyl]propyl-2,4,5-trimethoxybenzoate], the IC50 came to 9.33 µM in the series with U2OS (osteosarcoma); 8.66 µM in series [1]; 11.4 µM in series [2]; 19.9 µM in series [3]; 22.5 µM in series [4]; 7.96 µM in series [5]. Moreover, the concentration for half-maximal inhibition (IC50) in series [6] came to 24.4 µM; in series [7] it was 19.6 µM; in series [8] it was 35.7 µM; in series [9], 8.77 µM; in [10], 2.22 µM; in [11] it was 18.1 µM.
Consider `COc1cc(C(=O)OCCCS(=O)(=O)c2cc[n+]([O-])c3cc(Cl)ccc23)cc(OC)c1OC` [Compound 77, 3-[(N-Oxide 7-chloroquinolin-4-yl)sulfonyl]propyl-3,4,5-trimethoxybenzoate], for which the IC50 with U2OS (osteosarcoma) turned out to be 7.81 µM; in [1], 6.75 µM; in series [2], 9.02 µM; in [3], 10.9 µM; in series [4] it was 25.6 µM; in [5], 6.51 µM. Besides, the IC50 in series [6] turned out to be 21.6 µM; in series [7] it was 20.1 µM; in [8], 28.6 µM; in series [9] it was 7.5 µM; in series [10], 1.58 µM; in [11], 12 µM.
Turning to `COc1ccccc1C(=O)OCCCS(=O)(=O)c1cc[n+]([O-])c2cc(Cl)ccc12` [Compound 78, 3-[(N-Oxide 7-chloroquinolin-4-yl)sulfonyl]propyl-2-methoxybenzoate], the IC50 with U2OS (osteosarcoma) was 7.18 µM; in series [1] it was 6.99 µM; in series [2], 7.75 µM; in series [3], 8.78 µM; in series [4], 22.6 µM; in series [5] it was 5.64 µM. Besides, the IC50 in series [6] was 19.7 µM; in series [7] it was 19.5 µM; in series [8] it was 25 µM; in [9] it was 7.37 µM; in [10], 2.63 µM; in series [11], 9.18 µM.
Regarding `Cc1ccc([N+](=O)[O-])c(C(=O)OCCCS(=O)(=O)c2cc[n+]([O-])c3cc(Cl)ccc23)c1` [Compound 80, 3-[(N-Oxide 7-chloroquinolin-4-yl)sulfonyl]propyl-5-methyl-2-nitrobenzoate], the IC50 in the series with U2OS (osteosarcoma) came out at 5.74 µM; in series [1], 6 µM; in [2], 6.44 µM; in series [3] it was 6 µM; in series [4], 20 µM; in series [5], 4.61 µM. In addition, the IC50 in series [6] came to 15.9 µM; in series [7] it was 16.3 µM; in series [8], 22.2 µM; in [9] it was 6.75 µM; in series [10] it was 1.49 µM; in series [11], 6.78 µM.

In general, IC50 refers to the concentration at which inhibition is half-maximal. Low values mean higher potency, high ones lower potency.
